Experimental data published in US11149006B2, “Compounds as neurokinin-1 receptor antagonists and uses thereof” (XW LABORATORIES INC., priority 2018, dated 2021).

Key:
human NK-1 receptor = human NK-1 receptor (Homo sapiens (Human), UniProt P25103); assay: Tag-Lite Tachykinin NK-1 receptor competitive binding assay (TR-FRET); details: Tag-Lite NK-1 labeled cells, read-out: IC50 on hNK-1 receptor
Experimental: Human Tachykinin NK-1 receptor binding assay was performed using CisBio's Tag-Lite® Ligand binding assay. The homogeneous binding assay employees the time resolved fluorescence energy transfer (TR-FRET) technology. The potential inhibitory effect of Compound I and V on human NK-1 receptor was evaluated by TagLite® Tachykinin NK-1 receptor binding assay.
1. Tag-Lite® Tachykinin NK-1 receptor binding assay.
Materials: Tag-Lite® Tachykinin NK-1 labeled Cells, Tachykinin NK-1 Receptor red agonist Fluorescent Ligand (10 μMx50 μL), Tag-Lite Buffer (TLB) (5×concentration) (CisBio, Redford, Mass., U.S.A). [Sar9, Met(O2)11]-Substance P-Polypeptides (Tocris, Bristol, UK).
2. Competitive binding (Ki determination): Competitive binding assay measures the dissociation constant, To perform the assay, the compound is titrated into a solution containing a fixed concentration of fluorescent ligand and a fixed amount of cells.
Experimental procedure for competitive binding (Ki determination): Perform CisBio's Tag-Lite® Tachykinin NK-1 binding assay according to manufacturer's protocol. […] Incubate 2 h at room temperature, read the Signal665nm and Signal620nm using Evision. Data analysis was performed by calculating the Ratio following the formula below, the competitive binding data for each compound was analyzed with GraphPad Prism 5.0, and IC50 value was calculated for each compound.

[1] = target: human NK-1 receptor (NK-1/HEK293) (Homo sapiens (Human), UniProt P25103); assay: NK-1 calcium flux FLIPR antagonist assay; type: cell-based; details: for inhibition at 10 µM: HEK293, NK-1, max dose 10000 nM; for IC50: NK-1 FLIPR antagonist mode
Sequence of human NK-1 receptor (NK-1/HEK293) (P25103 whole entry): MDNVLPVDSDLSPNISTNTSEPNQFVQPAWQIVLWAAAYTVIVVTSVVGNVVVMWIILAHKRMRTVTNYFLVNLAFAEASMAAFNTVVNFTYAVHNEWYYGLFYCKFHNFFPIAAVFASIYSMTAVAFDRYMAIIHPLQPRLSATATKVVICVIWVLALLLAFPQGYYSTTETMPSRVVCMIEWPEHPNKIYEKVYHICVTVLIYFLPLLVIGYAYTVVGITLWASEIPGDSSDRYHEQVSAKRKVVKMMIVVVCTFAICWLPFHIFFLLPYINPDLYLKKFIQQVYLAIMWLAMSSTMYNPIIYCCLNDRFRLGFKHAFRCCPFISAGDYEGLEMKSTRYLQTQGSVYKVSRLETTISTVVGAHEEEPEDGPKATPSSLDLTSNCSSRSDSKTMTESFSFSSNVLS
Experimental: (§1) The potential antagonist activity of Compound I and IV on human NK-1/2/3 receptor was evaluated by calcium flux FLIPR assay. The results are shown in the following Table 2, while the NK-1 fitting dose-response curves for Compound I and IV are shown in FIGS. 2A and 2B, respectively.
(§2) 1. NK-1, NK-2 and NK-3 Calcium Flux FLIPR assays:
(§3) Materials: Cell Lines: NK-1/HEK293, NK-2/HEK293, NK-3/HEK293. Media: DMEM, Invitrogen (Cat #11960), FBS, Corning (Cat #35-076-CV), G418, Invitrogen (Cat #10131-027), and Blasticidin, Invitrogen (Cat #A11139). Reagent: Fluo-4 Direct, (Invitrogen, Cat #F10471).
(§4) Experimental procedure for NK-1, NK-2 and NK-3 calcium flux FLIPR assay: Perform the assay in the following steps: 1) Cell preparation: thaw each cell (NK-1, NK-2 and NK-3) in 37° C. water bath with gentle shaking, transfer cell suspensions to 50 mL conical tubes and add plating media to 45 mL mark. Count cells using a ViCell for concentration. Re-suspend the cells in the growth media to a concentration of 10×10^5 per mL. Add 20 μL per well of the cell suspension to the 384-well plates (20,000 cells/well). Place the cells at 37° C. 5% CO2 incubator overnight. 2) Calcium Flux FLIPR assay: a) Prepare Probenecid reagent by adding 1 mL FLIPR Assay Buffer to 77 mg probenecid to make 250 mM solution. b) Prepare assay reagent (2×8 μM Fluo-4 Direct™ Loading Buffer): Thaw one vial of Fluo-4 Direct™ crystals, add 10 mL of FLIPR Assay Buffer to the Vial; add 0.2 mL of Probenecid to each 10 mL vial of Fluo-Direct. c) Compounds preparation: The compounds are serially diluted in 100% DMSO 1:3 for 10 pts by Echo. Then dispense 900 nL of compounds to the 384-compound plate. Remove cell plate from incubator and gently dispense 20 μL of 2×Fluo-4 Direct™ to 384 well cell culture plate. Incubate for 50 min at 37° C. 5% CO2 and 10 min at room temperature. Remove cell plate from incubator and place it into FLIPR (Molecular Devices). Place compound plate and tip box into FLIPR. For the dose response curve (DRC) plate: a) Run the Protocol on FLIPRTETRA. b) Transfer 10 μL of assay buffer from 384-well plate to the cell plates. c) Read fluorescence signal. d) Transfer 10 μL of the compounds from the DRC plate to the cell plates. e) Read fluorescence signal. f) Calculate the “Max-Min” starting from Read 90 to Maximum allowed. […] For the compound plate in antagonist test: a) Run the Protocol on FLIPRTETRA. b) Transfer 10 μL of references and compounds from the compound plate to the cell plates. c) Read fluorescence signal. d) Transfer 10 μL of 6×EC80 concentrations of agonist reference compounds to the cell plates. e) Read fluorescence signal. f) For antagonist test, calculate the “Max-Min” starting from Read 90 to Maximum allowed. h) Analyze the data using GraphPad Prism 5.0.

[2] = Rat pharmacokinetic study; type: in vivo, male Sprague-Dawley rats; details: male, Sprague-Dawley, plasma
Experimental: For rat pharmacokinetic studies, male Sprague-Dawley rats were housed individually and fasted overnight before use. For Compound I and reference compound CP-122721, a single dose was administered to each rat in two groups (n=5/group) via intravenous (i.v.) administration at 4 mg/kg and oral (p.o.) administration of 20 mg/kg, respectively.
The vehicle used for i.v. administration was 10% HP-β-CD. The vehicle used for p.o. administration was 0.5% CMC-Na/0.1% Tween 80 in saline. Blood samples were collected at specified time-points following administration to individual rats within i.v. (pre-dose, 10 min, 0.5 h, 1 h, 2 h, 4 h, 6 h, 8 h, 12 h) and p.o. (pre-dose, 15 min, 0.5 h, 1 h, 2 h, 4 h, 8 h, 12 h, 24 h) group. Blood samples were clotted on ice immediately, plasma samples were then isolated by centrifugation and stored frozen (−80° C.) until further analysis. The concentrations of Compound I and CP-122721 were individually determined by LC/MS/MS assay. Various pharmacokinetic parameters were calculated using Phoenix™ WinNonlin® software. To quantify the bioconversion efficiency of the Compound I and CP-122721 in the circulation system, the bioavailability of Compound I and CP-122721 after p.o. administration was calculated.

[3] = system: cisplatin-induced emesis in ferrets; assay: Cisplatin-induced acute and delayed emesis in the ferret; type: in vivo; details: for reduction of retching+vomiting, entire delayed phase: delayed phase 24-72 h
Experimental: To investigate the anti-emetic potential of Compound I by preventing cisplatin-induced acute and delayed emesis in the ferret. Aprepitant was used as a positive control in this study.
40 castrated male ferrets weighing between 1.2 and 2.3 kg were used, which were obtained from Wuxi Sangosho Biotechnology Co. Ltd. (Wuxi, Jiangsu, China) and housed in groups of 2-3 at 24±1° C. with at 50±5% humidity. Artificial lighting was provided between 06:00 to 18:00 h. Water and dry pelleted cat chow were given ad libitum, unless otherwise stated. All experiments were conducted under license from the Government of the Hong Kong SAR and the Animal Experimentation Ethics Committee, The Chinese University of Hong Kong.
Compound I and aprepitant were supplied by XW Laboratories, Inc, China and were dissolved in distilled water. Cisplatin (Lot #MKBR1947V) was from Sigma-Aldrich, St. Louis, USA, and was dissolved in 0.9% w/v saline adjusted to pH 4 with 0.1N HCl. Doses were expressed as the free base, unless otherwise stated.
On the day of the experiment, groups of ferrets were administered Compound I (0.1, 0.3, 1 mg/kg, p.o.), aprepitant (1 mg/kg, p.o.), or distilled water (vehicle control, 1 mL/kg, p.o.) 2 h before cisplatin (5 mg/kg, i.p.) and then the treatments were continued at 24 h intervals (at 24 and 48 h post cisplatin). Emesis was characterized by rhythmic abdominal contractions that were either associated with the forceful oral expulsion of solid or liquid material from the gastrointestinal tract (i.e., vomiting), or not associated with the passage of material (i.e., retching movements). Consecutive episodes of retching and/or vomiting were considered separate when the animal changed its location in the observation cage, or when the interval between episodes exceeded 5 seconds.
GraphPad Prism 8 (GraphPad Software, La Jolla, Calif., United States) was used to perform statistical comparisons. Animal emesis behaviours like retching and vomiting were analyzed using a one-way analysis of variance followed by Tukey's multiple comparisons tests. The results are expressed as the mean±SEM. In all cases, differences between treatment groups were considered significant when the p value was less than 0.05.

[4] = target: human NK-2 receptor (NK-2/HEK293) (Homo sapiens (Human), UniProt P21452); assay: NK-2 calcium flux FLIPR antagonist assay; type: cell-based; details: for inhibition at 10 µM: HEK293, NK-2, max dose 10000 nM; for IC50: NK-2 FLIPR antagonist mode
Sequence of human NK-2 receptor (NK-2/HEK293) (P21452 whole entry): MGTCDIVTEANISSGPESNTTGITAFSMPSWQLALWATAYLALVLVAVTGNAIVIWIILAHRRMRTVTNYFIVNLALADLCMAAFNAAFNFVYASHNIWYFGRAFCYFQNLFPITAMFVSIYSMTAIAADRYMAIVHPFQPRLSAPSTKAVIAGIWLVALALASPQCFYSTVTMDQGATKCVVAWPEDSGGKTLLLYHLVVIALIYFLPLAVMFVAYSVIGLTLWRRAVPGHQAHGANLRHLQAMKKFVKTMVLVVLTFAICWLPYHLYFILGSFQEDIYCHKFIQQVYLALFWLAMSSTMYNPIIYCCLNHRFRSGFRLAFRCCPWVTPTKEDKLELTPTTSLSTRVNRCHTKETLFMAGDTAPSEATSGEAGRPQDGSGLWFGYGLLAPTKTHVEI
Experimental: as §1, §2, §3, §4

[5] = target: human NK-3 receptor (NK-3/HEK293) (Homo sapiens (Human), UniProt P29371); assay: NK-3 calcium flux FLIPR antagonist assay; type: cell-based; details: for inhibition at 10 µM: HEK293, NK-3, max dose 10000 nM; for IC50: NK-3 FLIPR antagonist mode
Sequence of human NK-3 receptor (NK-3/HEK293) (P29371 whole entry): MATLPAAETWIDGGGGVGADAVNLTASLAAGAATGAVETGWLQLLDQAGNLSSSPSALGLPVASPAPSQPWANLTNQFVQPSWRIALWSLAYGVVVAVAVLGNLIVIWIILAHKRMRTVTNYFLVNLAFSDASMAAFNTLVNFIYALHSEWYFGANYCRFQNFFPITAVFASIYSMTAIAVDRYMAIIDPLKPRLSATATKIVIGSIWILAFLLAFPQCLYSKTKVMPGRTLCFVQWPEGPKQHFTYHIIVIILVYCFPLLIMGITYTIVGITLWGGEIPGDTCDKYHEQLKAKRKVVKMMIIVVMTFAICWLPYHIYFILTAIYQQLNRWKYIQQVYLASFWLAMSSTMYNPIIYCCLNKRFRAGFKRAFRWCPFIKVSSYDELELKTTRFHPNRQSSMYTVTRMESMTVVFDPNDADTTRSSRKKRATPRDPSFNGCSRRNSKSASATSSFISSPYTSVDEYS
Experimental: as §1, §2, §3, §4

[6] = 1 mg/kg p.o., day 2 (non-significant)
[7] = 1 mg/kg p.o., entire 72 h observation period

Sequence of human NK-1 receptor (P25103 whole entry): as the sequence (P25103 whole entry) above

inhibition at 10 µM [1] [%]	IC50 [1] [nM]	inhibition at 10 µM [4] [%]	IC50 [4] [nM]	inhibition at 10 µM [5] [%]	IC50 [5] [nM]	Compound	reduction of retches+vomits, overall combined acute and delayed response ([3]; 1 mg/kg p.o., 0-72 h) [%]	reduction of retching+vomiting response ([3]; 1 mg/kg p.o., day 1 (acute)) [%]	reduction of retching+vomiting response [3, 6] [%]	reduction of retching+vomiting response ([3]; 1 mg/kg p.o., day 3) [%]	reduction of retching+vomiting, entire delayed phase ([3]; 1 mg/kg p.o.) [%]	reduction of total number of episodes [3, 7] [%]	reduction of total number of retches [3, 7] [%]	reduction of total number of vomits [3, 7] [%]	also measured
102	6.15	15	> 10000	26	> 10000	COc1ccc(S(F)(F)(F)(F)F)cc1CN[C@H]1CCCN[C@H]1c1ccccc1 [Compound I, (2S,3S)—N-(2-methoxy-5-(pentafluorosulfanyl)benzyl)-2-phenylpiperidin-3-amine]	52.2	64.5	22.7	67.5	41.3	59.0	51.3	57.3	IC50 (human NK-1 receptor): 0.64 nM; AUC(0-t) ([2]; iv, 4 mg/kg): 663 ng·h/mL; half-life ([2]; iv, 4 mg/kg): 1.84 h; bioavailability ([2]; oral, p.o. 20 mg/kg vs i.v. 4 mg/kg): 22.4%; AUC(0-t) ([2]; po, 20 mg/kg): 740 ng·h/mL; Cmax ([2]; po, 20 mg/kg): 202 ng/mL; Tmax ([2]; po, 20 mg/kg): 1.4 h; half-life ([2]; po, 20 mg/kg): 1.9 h; reduction of retches+vomits, overall combined acute and delayed response ([3]; 0.1 mg/kg p.o., 0-72 h): 23.9%; reduction of retches ([3]; 0.1 mg/kg p.o., entire 72 h observation period): 21.9%
101	22.2	1	> 10000	29	> 10000	[2H]C([2H])([2H])Oc1ccc(S(F)(F)(F)(F)F)cc1CN[C@H]1CCCN[C@H]1c1ccccc1 [Compound IV, (2S,3S)—N-(2-(methoxy-d3)-5-(pentafluorosulfanyl)benzyl)-2-phenylpiperidin-3-amine]	–	–	–	–	–	–	–	–	–
–	–	–	–	–	–	C[C@@H](O[C@H]1OCCN(Cc2n[nH]c(=O)[nH]2)[C@H]1c1ccc(F)cc1)c1cc(C(F)(F)F)cc(C(F)(F)F)c1 [aprepitant, reference compound]	67.4	76.5	46.7	73.3	59.4	64.0	67.9	64.6	superiority in reduction of retches+vomits over Compound I 0.1 mg/kg ([3]; aprepitant 1 mg/kg p.o. vs Compound I 0.1 mg/kg, 0-72 h): 43.5%; superiority in reduction of retches over Compound I 0.1 mg/kg ([3]; aprepitant 1 mg/kg p.o. vs Compound I 0.1 mg/kg, 72 h): 46%
